Source: patent US5250542A, “Peripherally selective piperidine carboxylate opioid antagonists” (Eli Lilly and Company, priority 1992, dated 1993)
pKi: −log10 of the molar value. Structures can show the parent of a compound that is named as a salt. Where two headings read alike, the source gives them in different places.

How the values were obtained:
mu receptor = molecular target: T1, mu receptor (Rattus norvegicus, UniProt P33535); assay: opioid receptor binding assay, [3H] NAL (tritiated naloxone), mu receptor; design: species or system rat (Male Sprague Dawley), brain minus cerebellum
T1 construct: rat whole brain minus cerebellum for mu was homogenized; from tissue; host or cells: brain of male Sprague Dawley rats, whole brain minus cerebellum, homogenate fraction
Description: This assay was conducted by the following procedure.
Male Sprague Dawley rats for mu site experiments were sacrificed via decapitation and the brains were removed. The brain tissue, rat whole brain minus cerebellum for mu was homogenized in a Teflon and glass tissue homogenizer. A supernatant I, pellet IV, fraction was frozen in a nitrogen freezer at 1.33 g/ml concentration and stored for not longer than five weeks prior to use. Pellets were rehydrated with physiological buffer prior to use.
The reaction was initiated by the addition of the resuspended tissue which had been preincubated at 37° C. for 20 minutes. The reaction mixture was incubated in a 37° C. water bath for 20 minutes. The reaction was terminated by rapid filtration, (Brandel Cell Harvestor), through Whatman GF/B glass filters that had been presoaked in Krebs-Hepes buffer pH 7.4. The filters were then washed 2x with 5 ml of ice cold Krebs-Hepes buffer pH 7.4. Washed filters were placed in scintillation vials and 10 ml RedySolv, (Brandel), was added and samples counted in a Searle D-300 beta counter. Means and standard error statistics were calculated for triplicate experimental determinations in certain cases. The incubation time for the reaction mixture was 20 minutes at 37° C.
Ki values were calculated using a minitab statistical program according to the following formula: [formula] wherein IC50 is the concentration at which 50% of the ^3 H ligand is displaced by the test compounds and KD is the dissociation constant for the ^3 H ligand at the receptor site. KD can be determined as described by Bennett, "Methods in Binding Studies", Neurotransmitter Receptor Binding, Yamamura, et al., ed., p. 57-90, Raven Press, N.Y. (1978) incorporated herein by reference.
In the Table, column 1 sets forth the Example Number of the compound evaluated, column 2 the Ki value in nanomolar (nM) at the mu receptor and columns 3 and 4 the percent displacement by the test compound at the indicated concentration, i.e., 10 nm or 100 nm.

[1] = molecular target: T2, peripheral opioid receptors (Mus musculus, UniProt P42866); assay: precipitated diarrhea in morphine-maintained mice (peripheral opioid activity) and comparison with the writhing test; type: in vivo; design: ED50 (diarrhea): unit not given beside the values; conditions: for Ratio (AD50 mouse writhing test / ED50 mouse diarrhea test): higher ratio = greater relative antagonism of peripheral opioid receptors; for ED50: mouse, 0.5 h; for ED50 / ED50 (diarrhea): morphine-maintained mice, antagonist subcutaneous or oral, 30 min observation; for ED50 (diarrhea): 30 min
T2 construct: Mice maintained (6 mice/cage) on 0.01M saccharin water with 1 g/1 morphine sulfate; from tissue; host or cells: living morphine-maintained mice (in vivo test; endogenous receptor)
Description: Determinations of peripheral opioid activity were conducted. Mice maintained (6 mice/cage) on 0.01M saccharin water with 1 g/1 morphine sulfate for a minimum of 10 days with mice averaging 3.0^+ g water/mouse/day for at least three days are used as subjects. The morphine water was removed 45 min. prior to injection with the proposed opioid antagonist. Initial testing consisted of 5 mice/dose of compound. The antagonist was given by the subcutaneous or oral, route of administration,and the mice were placed in 11-14"×4 7/12 I.D. clear plastic cylinders with white paper towels used for a floor.
The mice were then monitored visually for 30 minutes post-injection for the presence of jumping and of diarrhea. Jumping was scored as positive if at least one jump occurred in 30 min. Diarrhea was scored as positive when feces were moist enough to stain the white paper at the base of the cylinder. After 30 minutes of testing, the mice were placed back in original cages, put back on morphine water, and not tested again for 48 hrs. Lower doses of the antagonist compounds were tested until threshold doses for diarrhea were determined. Diarrhea is a peripherally mediated sign of precipitated opiate abstinence.
The extent of the effect on peripheral activity compared to central activity of the present compounds can-be determined by comparing the AD50 for the mouse writhing test with the ED50 for the mouse diarrhea test. The higher the ratio, the greater the relative antagonism of the peripheral opioid receptors by a particular compound.

opioid receptor = molecular target: T3, opioid receptor (Mus musculus, UniProt P42866); assay: mouse writhing analgesis test: block of morphine-induced analgesia; type: in vivo, CF-1 male mice; design: unit not given here; conditions: dose of antagonist that reduced the inhibition of writhing produced by 1.25 mg/kg morphine sulfate to 50%, subcutaneous, 20 min before acetic acid
T3 construct: Five CF-1 male mice (Charles River, Portage, Mich.); from tissue; host or cells: living CF-1 male mice (in vivo test; endogenous receptor)
Description: In order to determine in vivo opioid receptor antagonism, the mouse writhing analgesis test was used. Test compounds were measured for their ability to block morphine-induced analgesia.
Five CF-1 male mice (Charles River, Portage, Mich.), weighing approximately 20 g after being fasted overnight, were observed simultaneously for the writhing response. The writhing response was defined as a contraction of the abdominal musculature, followed by the extension of the hind limbs, and was induced by the intraperitoneal adminstration of 0.6% acetic acid in a volumne of 1 ml/100 g body weight. The observation period was 10 min. in duration, beginning 5 min. after injection of acetic acid. The percent inhibition of writhing was calculated from the average number of writhes in the control (non-drug) group. Each data point is the mean (±standarderror) for five mice. The ED50 was defined as the dose of agonist that inhibited mean writhing by 50%. […] Each mouse was only used once. All drugs were administered subcutaneously (1 ml/100 g bwt) 20 min. before the injection of acetic acid.

[2] = 20 min, read-out: % displacement at 10 nM
[3] = 20 min, read-out: % displacement at 100 nM
[4] = 20 min, read-out: % displacement at 10 nM, 10 nM test compound, [3H] naloxone 0.5 nM
[5] = 20 min, read-out: % displacement at 100 nM, 100 nM test compound, [3H] naloxone 0.5 nM
[6] = [3H] naloxone 0.5 nM, pH 7.4, 37° C., 20 min

T1 sequence (P33535 whole entry): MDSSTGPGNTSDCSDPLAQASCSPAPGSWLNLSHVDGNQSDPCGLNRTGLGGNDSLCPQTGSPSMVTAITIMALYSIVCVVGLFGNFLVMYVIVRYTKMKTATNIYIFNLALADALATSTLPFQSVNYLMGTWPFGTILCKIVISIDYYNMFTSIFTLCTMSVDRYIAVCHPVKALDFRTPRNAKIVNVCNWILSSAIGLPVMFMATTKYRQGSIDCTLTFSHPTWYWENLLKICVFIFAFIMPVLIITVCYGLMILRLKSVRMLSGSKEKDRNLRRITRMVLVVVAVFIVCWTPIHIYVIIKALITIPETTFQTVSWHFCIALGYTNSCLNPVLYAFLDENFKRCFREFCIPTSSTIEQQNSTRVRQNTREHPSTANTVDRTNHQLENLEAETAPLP
T3 sequence (P42866 whole entry): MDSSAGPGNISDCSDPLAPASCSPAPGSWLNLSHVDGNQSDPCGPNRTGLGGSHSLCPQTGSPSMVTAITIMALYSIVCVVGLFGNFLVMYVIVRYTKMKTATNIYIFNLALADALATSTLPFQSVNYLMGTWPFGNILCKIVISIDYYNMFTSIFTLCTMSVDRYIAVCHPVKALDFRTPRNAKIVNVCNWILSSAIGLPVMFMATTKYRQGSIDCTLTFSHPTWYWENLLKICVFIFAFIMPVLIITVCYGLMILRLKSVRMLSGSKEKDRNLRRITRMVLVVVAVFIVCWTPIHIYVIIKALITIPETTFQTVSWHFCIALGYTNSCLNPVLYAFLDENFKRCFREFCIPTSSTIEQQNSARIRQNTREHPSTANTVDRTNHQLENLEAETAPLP
T2 sequence (P42866 whole entry): as above

SMILES: CCOC(=O)C(Cc1ccccc1)CN1CC[C@@](C)(c2cccc(O)c2)[C@@H](C)C1 (relative stereo) [Example 4A, trans-4-(3-hydroxyphenyl)-3,4-dimethyl-a-(phenylmethyl)-1-piperidinepropanoic acid, ethyl ester hydrochloride]
- pKi (mu receptor): 8.86
- inhibition at 0.01 µM (mu receptor; [2]): 92%
- inhibition at 0.1 µM (mu receptor; [3]): 98%
- Ratio (AD50 mouse writhing test / ED50 mouse diarrhea test) [1]: 9
- ED50 [1]: 0.012 mg/kg
- AD50 (opioid receptor): 1.08

SMILES: C[C@H]1CN(CC(Cc2ccccc2)C(=O)O)CC[C@@]1(C)c1cccc(O)c1 (relative stereo) [Example 4B, 4-(3-hydroxyphenyl)-3,4-dimethyl-a-(phenylmethyl)-1-piperidinepropanoic acid monohydrate]
- pKi (mu receptor): 8.58
- inhibition at 0.01 µM (mu receptor; [2]): 83%
- inhibition at 0.1 µM (mu receptor; [3]): 97%
- Ratio (AD50 mouse writhing test / ED50 mouse diarrhea test) [1]: 809
- ED50 [1]: 0.011 mg/kg
- AD50 (opioid receptor): 8.90

SMILES: CCOC(=O)C(CC1CCCCC1)CN1CC[C@@](C)(c2cccc(O)c2)[C@@H](C)C1 (relative stereo) [Example 5A, 3-(3,4-dimethyl-4-(3-hydroxyphenyl)-1-piperidinyl]-2-(cyclohexylmethyl)propanoic acid ethyl ester hydrochloride]
- pKi (mu receptor): 7.86
- inhibition at 0.01 µM (mu receptor; [4]): 61%
- inhibition at 0.1 µM (mu receptor; [5]): 93%
- Ratio (AD50 mouse writhing test / ED50 mouse diarrhea test) [1]: 20
- ED50 [1]: 0.06 mg/kg
- AD50 (opioid receptor): 1.2

SMILES: C[C@H]1CN(CC(CC2CCCCC2)C(=O)O)CC[C@@]1(C)c1cccc(O)c1 (relative stereo) [Example 5B, 3-[3,4-dimethyl-4-(3-hydroxyphenyl)-1-piperidinyl]-2-(cyclohexylmethyl)-propanoic acid monohydrate]
- pKi (mu receptor): 8.95
- inhibition at 0.01 µM (mu receptor; [4]): 93%
- inhibition at 0.1 µM (mu receptor; [5]): 99%
- Ratio (AD50 mouse writhing test / ED50 mouse diarrhea test) [1]: 7
- ED50 [1]: 0.24 mg/kg
- AD50 (opioid receptor): 1.6

SMILES: CCOC(=O)C(CCN1CC[C@@](C)(c2cccc(O)c2)[C@@H](C)C1)c1ccccc1 (relative stereo) [Example 8A, trans-4-[(3-Hydroxyphenyl)-3,4-dimethyl-1-piperidine]-2-phenyl butanoic acid, ethyl ester hydrochloride]
- inhibition at 0.01 µM (mu receptor; [4]): 88%
- inhibition at 0.1 µM (mu receptor; [5]): 95%
- pKi (mu receptor; [6]): 8.70
- Ratio (AD50 mouse writhing test / ED50 mouse diarrhea test) [1]: 35
- ED50 [1]: 0.02 mg/kg
- AD50 (opioid receptor): 0.70

SMILES: C[C@H]1CN(CCC(C(=O)O)c2ccccc2)CC[C@@]1(C)c1cccc(O)c1 (relative stereo) [Example 8B, trans-4-[(3-Hydroxyphenyl)-3,4-dimethyl-1-piperidine]-2-phenyl butanoic acid hydrochloride]
- inhibition at 0.01 µM (mu receptor; [4]): 100%
- inhibition at 0.1 µM (mu receptor; [5]): 100%
- pKi (mu receptor; [6]): 9.57
- Ratio (AD50 mouse writhing test / ED50 mouse diarrhea test) [1]: 53
- ED50 [1]: 0.012 mg/kg
- AD50 (opioid receptor): 0.64

SMILES: C[C@H]1CN(CCC(C(=O)O)C2CCCCC2)CC[C@@]1(C)c1cccc(O)c1 (relative stereo) [Example 9B, hydrochloride]
- pKi (mu receptor): 9.18
- inhibition at 0.01 µM (mu receptor; [4]): 90%
- inhibition at 0.1 µM (mu receptor; [5]): 93%
- Ratio (AD50 mouse writhing test / ED50 mouse diarrhea test) [1]: 75
- ED50 [1]: 0.02 mg/kg
- AD50 (opioid receptor): 1.50

SMILES: C[C@H]1CN(CCC(C(=O)N(C)C)c2ccccc2)CC[C@@]1(C)c1cccc(O)c1 (relative stereo) [Example 10, trans-4-[(3-hydroxyphenyl)-3,4-dimethyl-1-piperidinyl]-2-phenyl-N,N-dimethylbutanamide hydrochloride]
- pKi (mu receptor): 8.93
- inhibition at 0.01 µM (mu receptor; [4]): 89%
- inhibition at 0.1 µM (mu receptor; [5]): 100%
- Ratio (AD50 mouse writhing test / ED50 mouse diarrhea test) [1]: 9
- ED50 [1]: 0.06 mg/kg
- AD50 (opioid receptor): 0.54

SMILES: CNC(=O)CNC(=O)C(CCN1CC[C@@](C)(c2cccc(O)c2)[C@@H](C)C1)c1ccccc1 (relative stereo) [Example 13, N-(methyl)-2-[[4-[4-(3-hydroxyphenyl)-3,4-dimethyl-1-piperidinyl]-2-phenyl-1-oxobutyl]amino]acetamide monohydrochloride]
- inhibition at 0.01 µM (mu receptor; [4]): 94%
- inhibition at 0.1 µM (mu receptor; [5]): 95%
- pKi (mu receptor; [6]): 9.37
- Ratio (AD50 mouse writhing test / ED50 mouse diarrhea test) [1]: > 125
- ED50 [1]: 0.32 mg/kg

SMILES: C[C@H]1CN(CCC(C(=O)NCC(N)=O)c2ccccc2)CC[C@@]1(C)c1cccc(O)c1 (relative stereo) [Example 14, trans-N-(2-amino-2-oxoethyl)-4-[3,4-dimethyl-4-(3-hydroxyphenyl)-1-piperidinyl]-2-phenylbutanamide monohydrochloride monohydrate]
- pKi (mu receptor): 8.19
- inhibition at 0.01 µM (mu receptor; [2]): 87%
- inhibition at 0.1 µM (mu receptor; [5]): 93%
- Ratio (AD50 mouse writhing test / ED50 mouse diarrhea test) [1]: > 43
- ED50 [1]: 0.92 mg/kg

SMILES: CC(C)COC(=O)CNC(=O)C(Cc1ccccc1)CN1CC[C@@](C)(c2cccc(O)c2)[C@@H](C)C1 (single isomer, unassigned) [Example 97D]
- Ratio (AD50 mouse writhing test / ED50 mouse diarrhea test) ([1]; listed as 97D*): 317
- Ratio (AD50 mouse writhing test / ED50 mouse diarrhea test) ([1]; listed as 97D**): 53
- ED50 (diarrhea) ([1]; listed as 97D**): 0.6
- ED50 (diarrhea) ([1]; listed as 97D*): 0.04
- AD50 (opioid receptor; listed as 97D**, 1.25 mg/kg): 32
- AD50 (opioid receptor; listed as 97D*, 1.25 mg/kg): 12.7

SMILES: C[C@H]1CN(CC(Cc2ccccc2)C(=O)NCC(=O)OC2CCCCC2)CC[C@@]1(C)c1cccc(O)c1 (stereo partly shown) [Example 52, 2-[[2-(phenylmethyl)-1-oxo-3-[4-(3-hydroxyphenyl)-3,4-dimethyl-1-piperidinyl]propyl]amino]-ethanoic acid cyclohexyl ester monohydrochloride]
- inhibition at 0.01 µM (mu receptor; 20 min, 10 nM test compound, [3H] naloxone 0.5 nM, read-out: % displacement at 10 nM): 53%
- inhibition at 0.1 µM (mu receptor; 20 min, 100 nM test compound, [3H] naloxone 0.5 nM, read-out: % displacement at 100 nM): 92%
- Ratio (AD50 mouse writhing test / ED50 mouse diarrhea test) [1]: 40
- ED50 [1]: 0.2 mg/kg

SMILES: CCOC(=O)CCCNC(=O)C(Cc1ccccc1)CN1CC[C@@](C)(c2cccc(O)c2)[C@@H](C)C1 (stereo partly shown) [Example 61, 4-[[3-[4-(3-hydroxyphenyl)-3,4-dimethyl-1-piperidinyl]-1-oxo-2-(phenylmethyl)propyl]-amino]butanoic acid ethyl ester monohydrochloride monohydrate]
- inhibition at 0.01 µM (mu receptor; [4]): 98%
- inhibition at 0.1 µM (mu receptor; [5]): 99%
- pKi (mu receptor; [6]): 8.72
- Ratio (AD50 mouse writhing test / ED50 mouse diarrhea test) [1]: 66
- ED50 [1]: 0.05 mg/kg
